“Also recorded” adds a separate entry of the source.
Target: T1, HSP72/BAG1 complex (Homo sapiens, UniProt P0DMV8)
T1 construct: purchased Enzo Life Sciences (BAG-1M only)
Assay: FP probe KD determination with BAG1
Type: binding
Description: To assess what effect the secondary HSP72/BAG1 complex had on the apparent affinity of the non-nucleotide bisaryl-ATTO-488 FP-probe 11, we carried out a similar BAG1 study. […] To confirm that the binding of BAG1 to HSP72 was not mutually exclusive, we screened the nucleotides ADP and ATP in a competition assay with bisaryl-ATTO-488 11 and HSP72 at a 50% bound fraction, with and without a saturating concentration of BAG1 (700 nM) (Fig. S7, ESI ^†). […]
mM TRIS base pH 7.4, 100 mM NaCl, 1 mM DTT, 1% (v/v) glycerol) or BAG1 replacement buffer (5 μL, 20 mM TRIS base pH 7.4, 100 mM NaCl, 1 mM DTT, 1% (v/v) glycerol) was added to the corresponding wells of the assay plate. Fluorescence polarisation values for probe and HSP72 ± BAG1 were plotted using GraphPad prism 6.
KD determination with BAG1: To each well, 5 μL containing probe molecule (20 nM in assay buffer) and BAG1 protein (1.4 μM in assay buffer) and increasing concentrations of HSP70 protein (5 μL, two-fold dilution series) were added. Fluorescence polarisation values for tracer control wells (10 nM probe in assay buffer only) were subtracted from each data point prior to data analysis. KD determination was performed using non-linear regression analysis (GraphPad Prism 6, one site–specific binding […]

T1 sequence (P0DMV8 whole entry): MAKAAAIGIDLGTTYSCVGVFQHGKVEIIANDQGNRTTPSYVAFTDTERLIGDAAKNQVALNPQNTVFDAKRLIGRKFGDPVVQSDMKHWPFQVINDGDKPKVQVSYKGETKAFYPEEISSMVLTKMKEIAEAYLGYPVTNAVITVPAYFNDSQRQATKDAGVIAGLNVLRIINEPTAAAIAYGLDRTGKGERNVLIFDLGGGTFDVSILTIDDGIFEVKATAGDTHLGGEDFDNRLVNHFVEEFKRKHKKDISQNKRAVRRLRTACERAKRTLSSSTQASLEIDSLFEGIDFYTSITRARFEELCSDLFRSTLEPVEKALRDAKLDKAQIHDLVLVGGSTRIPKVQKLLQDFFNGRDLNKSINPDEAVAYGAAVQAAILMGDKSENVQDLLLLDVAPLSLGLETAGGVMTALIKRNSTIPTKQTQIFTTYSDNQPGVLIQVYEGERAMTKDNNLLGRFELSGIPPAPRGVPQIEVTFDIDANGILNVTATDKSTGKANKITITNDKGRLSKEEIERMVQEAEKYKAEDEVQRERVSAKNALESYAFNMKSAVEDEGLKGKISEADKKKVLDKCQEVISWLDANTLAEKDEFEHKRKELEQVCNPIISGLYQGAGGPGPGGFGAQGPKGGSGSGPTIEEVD
T1 sequence (Q99933 72-345 partner limits assumed): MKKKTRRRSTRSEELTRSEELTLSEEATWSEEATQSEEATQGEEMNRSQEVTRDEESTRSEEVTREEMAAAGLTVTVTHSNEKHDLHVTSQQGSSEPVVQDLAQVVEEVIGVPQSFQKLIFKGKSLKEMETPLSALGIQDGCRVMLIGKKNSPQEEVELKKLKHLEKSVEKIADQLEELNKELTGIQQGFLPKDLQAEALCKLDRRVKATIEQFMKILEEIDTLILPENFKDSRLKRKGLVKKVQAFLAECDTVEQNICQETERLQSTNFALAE

SMILES: CN(CCCC(=O)NCCCCCCNc1ncnc2c1nc(NCc1ccc3ncccc3c1)n2[C@@H]1O[C@H](COCc2ccc(C(F)(F)F)cc2)[C@@H](O)[C@H]1O)C(=O)c1ccccc1-c1c2ccc(=N)c(S(=O)(=O)O)c-2oc2c(S(=O)(=O)O)c(N)ccc12 [compound 11]
- Kd (700 nM BAG1): 141 nM
- effect of BAG1 on affinity of the probe for HSP72 (saturating BAG1 (700 nM)): maintained; also recorded: no significant change

Reference: PMC5708526, “Targeting secondary protein complexes in drug discovery: studying the druggability and chemical biology of the HSP70/BAG1 complex” (Chemical Communications (Cambridge, England), 2017)
